Source: ChEMBL document CHEMBL5046311, “Photoaffinity Probe Reveals the Potential Target of Harringtonolide for Cancer Cell Migration Inhibition” (ACS Med Chem Lett, 2022)
One block for each compound: values may come before it. Active and inactive are the calls of the source. No cut-off for these calls is given here.

Tests used:
A-375 [1] = test: Antiproliferative activity against human A-375 cells assessed as reduction in cell viability at 1.5625 to 50 uM after 24 hrs by MTT assay; format: functional, cell-based; details: dose 1.5625-50 µM
[2] = Stability of the compound in DMEM medium with 10% fetal bovine serum assessed as parent compound remaining at 200 uM incubated upto 24 hrs by HLPC analysis; format: ADME, cell-free; details: cattle, read-out: Stability
A-375 [3] = test: Binding affinity to RACK1 in human A-375 cells at 10 uM preincubated for 4 hrs followed by irradiation with UV for 30 mins measured by Western blotting based pull-down assay; format: cell-based; details: time 4.5 hrs
A-375 [4] = test: Inhibition of cell migration in human A-375 cells at measured after 24 hrs by phase contrast microscopy based wound healing assay; format: functional; details: dose 0.5-2 µM
A-375 [5] = test: Inhibition of cell invasion in human A-375 cells at measured after 24 hrs by crystal violet staining based imaging analysis; format: functional; details: dose 0.5-2 µM
A-375 [6] = test: Binding affinity to RACK1 in human A-375 cells at 10 uM preincubated for 4 hrs in the presence of harringtonolide followed by irradiation with UV for 30 mins measured by Western blotting based pull-down assay; format: cell-based; details: time 4.5 hrs
[7] = Drug degradation in DMEM medium with 10% fetal bovine serum assessed as compound hydrolysis at 200 uM incubated upto 24 hrs by HLPC analysis; format: ADME, cell-free; details: cattle, read-out: Drug degradation
A-375 [8] = test: Antiproliferative activity against human A-375 cells assessed as reduction in cell viability upto 50 uM after 24 hrs by MTT assay; format: functional, cell-based; details: dose microM <=50, time 24.0 hrs
A-375 [9] = test: Binding affinity to RACK1 in human A-375 cells assessed as prevention of temperature dependent protein degradation at 10 uM preincubated for 60 mins at room temperature followed by heat treatment at 45 to 63 degree C for 5 mins measured by immunoblotting based cellular thermal shift assay; format: cell-based
[10] = molecular target: Signal transducer and activator of transcription 3 (Homo sapiens) (UniProt P40763); test: Inhibition of STAT3 in human A-375 cells assessed as decrease in Bcl2 protein level at 0.5 to 4 uM measured after 24 hrs by western blot analysis; format: cell-based; details: dose 0.5-4 µM
Signal transducer and activator of transcription 3 (Homo sapiens), sequence (P40763 whole entry): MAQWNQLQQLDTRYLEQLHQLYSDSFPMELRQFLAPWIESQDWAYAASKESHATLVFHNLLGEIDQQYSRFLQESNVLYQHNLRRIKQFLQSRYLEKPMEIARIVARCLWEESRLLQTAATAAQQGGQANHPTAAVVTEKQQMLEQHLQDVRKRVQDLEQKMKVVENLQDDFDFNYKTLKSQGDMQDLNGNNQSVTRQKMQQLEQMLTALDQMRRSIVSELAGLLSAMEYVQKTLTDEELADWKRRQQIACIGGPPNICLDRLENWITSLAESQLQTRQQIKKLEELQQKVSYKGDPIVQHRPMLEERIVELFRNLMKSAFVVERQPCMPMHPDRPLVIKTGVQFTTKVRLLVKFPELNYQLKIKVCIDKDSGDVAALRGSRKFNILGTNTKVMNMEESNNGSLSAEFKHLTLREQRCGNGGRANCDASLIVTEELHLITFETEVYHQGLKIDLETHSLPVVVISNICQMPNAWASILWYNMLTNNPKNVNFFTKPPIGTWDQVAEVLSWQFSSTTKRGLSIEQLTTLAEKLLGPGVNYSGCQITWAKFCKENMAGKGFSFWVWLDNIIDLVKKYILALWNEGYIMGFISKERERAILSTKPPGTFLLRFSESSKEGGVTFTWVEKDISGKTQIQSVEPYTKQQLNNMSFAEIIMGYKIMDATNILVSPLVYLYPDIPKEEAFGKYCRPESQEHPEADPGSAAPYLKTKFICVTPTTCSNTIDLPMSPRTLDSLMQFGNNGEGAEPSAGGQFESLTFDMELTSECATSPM

A-375 [11] = test: Inhibition of epithelial-mesenchymal transition in human A-375 cells assessed as downregulation of Snail expression at 0.5 to 4 uM measured after 24 hrs by Western blotting analysis; format: functional, cell-based; details: dose 0.5-4 µM
A-375 [12] = test: Inhibition of epithelial-mesenchymal transition in human A-375 cells assessed as upregulation of E-cadherin expression at 0.5 to 4 uM measured after 24 hrs by Western blotting analysis; format: functional, cell-based; details: dose 0.5-4 µM
[13] = molecular target: Focal adhesion kinase 1 (Homo sapiens) (UniProt Q05397); test: Inhibition of FAK in human A-375 cells assessed as reduction in STAT3 activation at 0.5 to 4 uM measured after 24 hrs by Western blotting analysis; format: cell-based; details: dose 0.5-4 µM
Focal adhesion kinase 1 (Homo sapiens), sequence (Q05397 2-1052 limits assumed): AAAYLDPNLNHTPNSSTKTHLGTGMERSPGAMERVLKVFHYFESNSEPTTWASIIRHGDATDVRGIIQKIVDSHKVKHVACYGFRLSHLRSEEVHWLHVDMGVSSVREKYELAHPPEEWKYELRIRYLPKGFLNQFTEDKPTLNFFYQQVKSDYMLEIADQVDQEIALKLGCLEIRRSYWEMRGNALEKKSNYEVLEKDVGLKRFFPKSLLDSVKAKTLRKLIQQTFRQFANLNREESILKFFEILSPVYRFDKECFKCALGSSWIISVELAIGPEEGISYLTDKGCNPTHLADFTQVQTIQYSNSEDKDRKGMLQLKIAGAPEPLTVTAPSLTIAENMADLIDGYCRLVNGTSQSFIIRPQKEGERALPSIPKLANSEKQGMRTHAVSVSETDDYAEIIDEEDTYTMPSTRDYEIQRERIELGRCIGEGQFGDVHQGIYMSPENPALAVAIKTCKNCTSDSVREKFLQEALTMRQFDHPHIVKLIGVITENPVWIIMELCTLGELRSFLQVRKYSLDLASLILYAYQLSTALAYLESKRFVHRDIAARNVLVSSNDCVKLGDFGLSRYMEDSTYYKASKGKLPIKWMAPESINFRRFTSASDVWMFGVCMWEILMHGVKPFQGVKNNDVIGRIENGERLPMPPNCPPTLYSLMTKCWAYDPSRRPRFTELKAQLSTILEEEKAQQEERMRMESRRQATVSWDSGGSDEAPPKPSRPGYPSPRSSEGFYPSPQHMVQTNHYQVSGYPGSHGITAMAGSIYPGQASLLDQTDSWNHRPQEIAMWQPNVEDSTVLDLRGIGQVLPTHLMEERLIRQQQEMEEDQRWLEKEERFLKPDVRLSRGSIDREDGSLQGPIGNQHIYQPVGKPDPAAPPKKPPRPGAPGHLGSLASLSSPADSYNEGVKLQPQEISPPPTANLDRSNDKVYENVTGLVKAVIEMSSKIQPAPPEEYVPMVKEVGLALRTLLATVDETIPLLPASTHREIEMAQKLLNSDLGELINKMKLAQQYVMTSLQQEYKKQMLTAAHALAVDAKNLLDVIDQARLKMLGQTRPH

[14] = molecular target: Signal transducer and activator of transcription 3 (Homo sapiens) (UniProt P40763); test: Inhibition of STAT3 in human A-375 cells assessed as decrease in c-Myc protein level at 0.5 to 4 uM measured after 24 hrs by western blot analysis; format: cell-based; details: dose 0.5-4 µM
[15] = molecular target: Focal adhesion kinase 1 (Homo sapiens) (UniProt Q05397); test: Inhibition of FAK phosphorylation in human A-375 cells measured after 24 hrs by Western blotting analysis; format: cell-based; details: dose 0.5-4 µM
A-375 [16] = test: Inhibition of epithelial-mesenchymal transition in human A-375 cells assessed as downregulation of N-cadherin expression at 0.5 to 4 uM measured after 24 hrs by Western blotting analysis; format: functional, cell-based; details: dose 0.5-4 µM
[17] = molecular target: Focal adhesion kinase 1 (Homo sapiens) (UniProt Q05397); test: Inhibition of FAK in human A-375 cells assessed as reduction in Src activation at 0.5 to 4 uM measured after 24 hrs by Western blotting analysis; format: cell-based; details: dose 0.5-4 µM
A-375 [18] = test: Antiproliferative activity against human A-375 cells assessed as reduction in cell viability after 24 hrs by MTT assay; format: functional, cell-based; details: A-375, 24 h
A-375 [19] = test: Inhibition of RACK1-FAK protein-protein interaction in human A-375 cells measured after 24 hrs by co-immunoprecipitation assay; format: cell-based; details: dose 2-4 µM
A-375 [20] = test: Binding affinity to RACK1 in human A-375 cells assessed as prevention of pronase-mediated protein degradation at 5 to 20 uM preincubated for 60 mins followed by enzyme addition and measured after 25 mins by immunoblotting based DARTS assay; format: cell-based; details: dose 5-20 µM, time 85.0 min

remaining at 24 h, 200 µM [2]: 59.2%
SMILES: Cc1cc(=O)cc2c3c1[C@@H]1O[C@H]4[C@@H]5OC(=O)[C@](C[C@@H]2OC(=O)COCCOCCNC(=O)CCCC[C@@H]2SC[C@@H]6NC(=O)N[C@@H]62)([C@@H]4C)[C@H]3[C@@H]51
Activity (A-375 [1]): Active

degraded at 24 h, 200 µM [7]: 13.6%
SMILES: C#CCCC1(CCC(=O)O[C@H]2C[C@]34C(=O)O[C@H]5[C@H](O[C@H]6c7c(C)cc(=O)cc2c7[C@@H]3[C@@H]56)[C@H]4C)N=N1
Activity (A-375 [1]): Active
Activity (A-375 [3]): Active
inhibition (A-375 [4]): Dose-Dependent Effect
inhibition (A-375 [5]): Dose-Dependent Effect
Activity (A-375 [6]): inactive

SMILES: Cc1cc(=O)cc2c3c1[C@@H]1O[C@H]4[C@@H]5OC(=O)[C@](C[C@@H]2OC(=O)COCCOCCOCCOCCNC(=O)CCCC[C@@H]2SC[C@@H]6NC(=O)N[C@@H]62)([C@@H]4C)[C@H]3[C@@H]51
Activity (A-375 [8]): inactive

SMILES: Cc1cc(=O)cc2c3c1[C@@H]1O[C@H]4[C@@H]5OC(=O)[C@](CC2)([C@@H]4C)[C@H]3[C@@H]51 [HAINANOLIDE]
Activity (A-375 [9]): Active
inhibition [10]: Active
inhibition (A-375 [11]): Active
inhibition (A-375 [4]): Dose-Dependent Effect
inhibition (A-375 [12]): Active
inhibition [13]: Active
inhibition (A-375 [5]): Dose-Dependent Effect
inhibition [14]: Active
inhibition [15]: Dose-Dependent Effect
inhibition (A-375 [16]): Active
inhibition [17]: Active
IC50 (A-375 [18]): 39.7 µM
inhibition (A-375 [19]): Dose-Dependent Effect
Activity (A-375 [20]): Active
